System: GADD45, CEBPb and MMP13 expression in differentiating canine MSCs
Test: Expression of hypertrophic chondrocyte markers (relative RNA levels) during chondrogenic differentiation
Type: cell-based
Details: relative RNA levels at days 10 and 24 of chondrogenic differentiation
Procedure: (§1) 1B depicts the experiment in which we added 30 ng/ml kynurenine to the differentiating MSCs to examine its effect on the markers of hypertrophic chondrocytes. In the experiment, we measured the expression of the two main regulatory transcription factors of hypertrophic chondrocyte differentiation, factors GADD45 and CEBPb, and of their target, matrix metalloproteinase-13 (MMP13), by measuring their relative RNA levels on days 10 (early) and 24 (mature) of chondrogenic differentiation.
as §1, with “2B” for “1B”, “50” for “30”, “THBS1” for “kynurenine”
During the analysis, first we quantified the levels of KYNA produced in canine AD-MSCs derived from 8 independent donations by ELISA in passage 3 cultures. […]
In another analysis, we quantified the levels of THBS1 produced in the AD-MSCs derived from 8 independent donations by ELISA in passage 3 cultures. […]

Molecule	Effect on hypertrophic chondrocyte phenotype (expression of GADD45, CEBPb and MMP13) (30 ng/ml KYNA added at day 7)	Effect on hypertrophic chondrocyte phenotype (expression of GADD45, CEBPb and MMP13) (50 ng/ml THBS1 added at day 7)
Nc1ccccc1C(=O)CC(N)C(=O)O (centres unmarked) [KYNA, kynurenine]	able to suppress the hypertrophic chondrocyte phenotype	–
THBS1: Thrombospondin 1, adhesive glycoprotein encoded by the THBS1 gene, added to differentiating MSCs at 50 ng/ml	–	sufficient to suppress the hypertrophic chondrocyte phenotype

Reference: patent US20240174980A1, “PROCESS FOR MANUFACTURE OF A COMPOSITION FOR THE TREATMENT OF OSTEOARTHRITIS IN A SUBJECT” (STEM CELLX EUROPE KFT, priority 2021, published 2024)
